Source: patent US11241480B2, “Methods for modulation of dietary and microbial exposure with compositions comprising an EGFR ligand” (Washington University, priority 2017, dated 2022)
“Also recorded” adds a separate entry of the source.

Experiments:
[1] = system: C57BL/6 mice; assay: Oral tolerance and delayed type hypersensitivity (DTH) response to Ova; assay type: in vivo
Method: Antibiotic treatment: Mice were given a combination of antibiotics (Abx) ampicillin (1 g/L), metronidazole (1 g/L), neomycin (1 g/L), and vancomycin (500 mg/L) in drinking water for the time periods outlined in the figure legends.
(§1) EGFRi treatment: Mice were injected with 500 μg/kg tyrphostin AG1478 (an inhibitor of EGFR phosphorylation) in the neonatal, post-neonatal, or weaned phase on DOLs noted in the text or figure legends.
Oral tolerance and Delayed Type Hypersensitivity Responses: Mice, and/or nursing dams, when treated prior to weaning, were given Ova 20 g/L in drinking water, or drinking water alone for the intervals defined in the figure legend. Four weeks and six weeks following dietary Ova exposure mice were immunized subcutaneously with 100 μg Ova in incomplete Freund's Adjuvant (Sigma Aldrich). Two weeks after the last immunization mice were challenged with 20 μg Ova in the footpad, body temperature monitored for one hour, and the increase in footpad thickness evaluated using measurements taken with micrometer calipers taken before and 24 hours after challenge. To directly evaluate colonic antigen delivery and blockade of GAPs in the development of tolerance, enemas containing Ova 10 μg/gm body weight with or without 10 μg EGF were administered intrarectally every other day five times from DOL 14 to 22 (post-neonatal phase) or DOL 56 to 64 (adult). Mice were rested three weeks, and then systemically immunized and challenged in the footpad as above.

[2] = system: goblet cell associated antigen passages (GAPs); assay: Enumeration of goblet cell associated antigen passages (GAPs) in SI and colon by in vivo two-photon imaging and fixed sections; parameters: species or system mice
Method: Intravital two-photon (2P) microscopy: Mice were anesthetized using nebulized isofluorane in 95% O2/5% CO2. Intravital preparation of the intestine was performed as previously described. To detect GAPs, lysine fixable fluorescently-labeled dextran 10,000 MW (10 mg/mL) and diamidino-2-phenylindole (DAPI; 10 mg/mL) were injected intraluminally 20 minutes prior to imaging, and imaging was performed for up to one hour. To detect paracellular leak fluorescently labeled dextran 3,000 MW (10 mg/mL) and DAPI (10 mg/mL) were injected intraluminally 20 minutes prior to imaging. To detect the extension of trans-epithelial dendrites by APCs, CD11c^YFP or CX3CR1^GFP were imaged as above using 10,000 MW fluorescent dextran to outline the epithelial surface. Tissues were excited using a Ti:sapphire laser tuned to 890 nm (Chameleon X R, Coherent). Time-lapse imaging was performed with a custom-built 2P microscope running ImageWarp acquisition software (A&B Software, New London, Conn.). Epithelial integrity was assessed by dextran and DAPI staining as described. Following imaging, tissues were placed in 10% formalin buffered phosphate solution (Fisher Scientific) to fix dextrans in place to confirm 2P findings and for further analysis by immunofluorescence microscopy.
In some experiments mice were treated with 150 μg/kg carbachol chloride i.p. 10 minutes before dextran, 100 mg/kg tropicamide (mAChR4 selective antagonist) i.p. 20 minutes before dextran, 500 μg/kg tyrphostin AG1478 (inhibitor of EGFR phosphorylation) i.p. 20 minutes before dextran, 10 mg/kg U-0126 (inhibitor of p42/p44 MAPK phosphorylation) i.p. 20 minutes before dextran, 1-1000 ng EGF (Shenandoah Biotechnologies) injected intraluminally 20 minutes before dextran, 10 μg LPS injected intraluminally 20 minutes before dextran, or 100 μl stomach contents from a DOL 10 mice, or 100 μl heat killed cecal contents from SPF housed adult mice injected intraluminally 20 minutes before dextran was administered. All reagents from Sigma Aldrich, St. Louis, Mo. unless otherwise noted.
Enumeration of GAPs: GAPs were identified as dextran-filled columns measuring approximately 20 μm (height)×5 μm (diameter) traversing the epithelium and containing a nucleus. GAPs were enumerated in the jejunum or mid-transverse colon using Z-stack images of a volume of 225 μm(x) by 250 μm(y) by 50 μm(z) acquired during in vivo 2P imaging as described above. SI GAPs were enumerated as GAPs per villus. When present, colonic GAPs were found on both the surface epithelium and within the crypts, but were enumerated as GAPs per crypt due to difficulty in distinguishing dextran filled GAPs from luminal dextran during in vivo imaging. De-identified and coded video clips were evaluated by a blinded investigator to enumerate GAPS in early life. The number of GAPs per villus and GAPs per crypt seen by 2P imaging were confirmed by immunofluorescence microscopy of tissues that were fixed following 2P imaging. To quantify GAPs per GC, lysine fixable 10,000 MW fluorescent dextran was injected into the lumen and intestines harvested 25 min later. Tissues were fixed with 10% formalin buffered saline for 45 min, sectioned, and stained with antibodies directed against cyt18. GCs were identified cyt18+ epithelial cells with GC morphology and GAPs as dextran containing epithelial cells defined as above.
Intravital two-photon (2P) microscopy: Mice were anesthetized using nebulized isofluorane in 95% O2/5% CO2. Intravital preparation of the intestine was performed as previously described. To detect GAPs, tetramethylrodamine labeled dextran 10,000 MW (10 mg/mL) or fluorescein labeled dextran 10,000 MW (10 mg/mL) and diamidino-2-phenylindole (DAPI; 10 mg/mL) were injected intraluminally 20 minutes prior to imaging and imaging was performed for up to one hour. Tissues were excited using a Ti:sapphire laser tuned to 890 nm (Chameleon XR, Coherent). […]

[3] = Serum cytokines and immunoglobulins by ELISA/multiplex after Ova rechallenge; assay type: in vivo, mice; conditions: dietary Ova DOL 0-30; EGFRi DOL 6 and 8 or DOL 24 and 26
Method: Measurement of cytokines, EGF, and immunoglobulins: Cytokines were measured using the MILLIPLEX MAP Mouse Cytokine/Chemokine Magnetic Bead Panel (see e.g., FIG. 16D; EMD Millipore) or using ELISAs for EGF (R&D systems), IL13 (eBioscience), Eotaxin (R&D systems), IgE (eBiosciences), and MCPT1 (eBioscience) per the manufacturers recommendations. An ELISA comprised of Ova (Sigma-Aldrich A5503) for capture, and monoclonal anti-IgE antibody conjugated to alkaline phosphatase (Southern Biotech 1110-04) for detection, was used to measure Ova specific IgE.

[4] = system: colonic LP Tregs (FoxP3+); assay: Colonic LP Treg/iTreg populations by flow cytometry after early-life manipulation; assay type: in vivo, mice
Method: as §1
Isolation of cellular populations and flow cytometry: Sls or colons were harvested, rinsed with PBS, and Peyer's patches or colonic patches were removed. Epithelial cellular populations were released by incubating for 15 min three times in a 37° C. rotating incubator in HBSS media (BioWhittaker, Walkersville, Md.) containing 5 mM EDTA, and splenic and LP cellular populations were isolated as described. SI and colonic APCs were identified as 7AAD^−, CD45^+, CD11c^+, MHCII^+ for flow cytometric sorting. FoxP3 subpopulations were identified as 7AAD^−, CD45^+, CD3^+, CD4^+, FoxP3^+, and either RORγt^+ or Helios^+. For intracellular antigens and cytokines, cells were fixed, permeabilized overnight, and stained per the manufacturers recommendations (eBioscience). Flow cytometry was performed with a FACScan cytometer (BD Biosciences, San Jose, Calif.) retrofitted with additional lasers. Data acquisition was performed using CellQuest (BD Biosciences) and Rainbow (Cytek, Fremont, Calif.) or FlowJo software (Tree Star, Ashland, Oreg.). Data analysis was performed on a Macintosh computer running FlowJo software.

[5] = dietary Ova DOL 0-30, EGFRi DOL 6 and 8 or DOL 24 and 26

Molecule	tolerance to luminal Ova (DTH, footpad thickness) ([1]; Ova enemas with EGF every other day DOL 14-22 (post-neonatal phase colon))	colonic GAP formation / dextran uptake by colonic epithelial cells ([2]; DOL 14 mice (post-neonatal phase), wildtype)	colonic GAP formation ([2]; DOL 18 mice (post-neonatal phase), agent given luminally)	luminal EGF concentration below which colonic and SI GCs formed GAPs (a concentration that inhibits GAPs on short term exposure) ([2]; DOL ~10 (colon) and DOL ~18 (SI)) [µg/mL]	other immunoglobulins, Th1 and Th17 cytokines in serum [3]	serum Th2 mediators and IgE [3]	colonic LP Treg population, pattern and timing ([4]; EGFRi in neonatal phase, DOL 6 and 8)	colonic LP Treg population, pattern and timing ([4]; EGFRi in post-neonatal phase, DOL 14 and 16)	colonic LP Treg population, pattern and timing ([4]; EGFRi on DOL 24 and 26 (beyond weaning))	persistence of the diminished iTreg population ([4]; after manipulation of colonic GAPs (EGFRi neonatal or weaning phase))	lethargy/hypothermia upon rechallenge with sterile Ova in the footpad [1, 5]	oral tolerance (footpad swelling upon Ova rechallenge) [1, 5]	lethargy/hypothermia upon rechallenge with sterile Ova in the footpad ([1]; dietary Ova DOL 0-30, EGFRi DOL 6 and 8 or DOL 24 and 26, listed as inhibitor of EGFR activation)	GAP formation in SI and colon ([2]; DOL 8 mice (neonatal phase))	SI GAP formation ([2]; DOL 18 mice)	colonic GAP formation ([2]; DOL 28, post weaning)	GAP formation in the SI and colon ([2]; all phases of early life (DOL8, 18, 28))
EGF: recombinant murine EGF (Shenandoah); EGFR ligand, given luminally or intracolonically	abrogated tolerance to luminal Ova; also recorded: attenuates tolerance to a luminal antigen	inhibited	inhibited GAPs	< 1000	–	–	–	–	–	–	–	–	–	–	–	–	–
COc1cc2ncnc(Nc3cccc(Cl)c3)c2cc1OC [EGFRi, tyrphostin AG1478]	–	–	–	–	did not have elevations in other immunoglobulins or prototypic Th1 or Th17 cytokines	markedly elevated serum levels of Th2 mediators, and global and antigen-specific IgE	early peaks in colonic LP Tregs; these peaks rapidly decreased and were not maintained	resembled the endogenous Treg population of non-manipulated animals	rapidly lost the colonic Treg population	at least 8 months	lethargic and hypothermic	significantly abrogated	developed hypothermia	induced colonic and SI GAPs	induced	induced	allowed GAP formation in the SI and colon during all phases of early life
